Test results published in patent US11896650B2, “Enhancing chemotherapy in medulloblastoma and glioblastoma with high basal p53 levels” (GEORGETOWN UNIVERSITY, priority 2018, dated 2024).

Key:
Assay type in all cases: cell-based
D556 cells [1] = test: Chemosensitivity testing of D556 cells with cisplatin or vincristine in presence or absence of Tβ-4; conditions: Tβ-4 5 nM; p<0.05
Procedure: (§1) Comparative sensitivities of D556 cells treated with cisplatin (FIG. 6B) or vincristine (FIG. 6C) were tested at the concentrations shown and in the presence or absence of thymosin β-4 (5 nM). * p<0.05, N>3 separate experiments.
(§2) For chemosensitivity testing, the effects of p53 knockdown on cell survival of D556 cells treated with doxorubicin (dox), vincristine (vinc) and cisplatin (csp) was further assessed.

[2] = tested on: Akt, PP2A (α and c subunit), PARP and RIP1 in D556 cells; test: Western blot of D556 cells after Tβ-4 treatment
Procedure: FIGS. 5A, 5B, 5C and 5D are Western blots showing that Tβ-4 treatment of D556 cells induces expression of Akt, PP2A (α and c subunits), PARP, and RIP1.
To further assess the mechanism of effect of Tβ-4 treatment of D556 cells, Western blot were performed.

D283 cells = test: Cell viability of D283 cells treated with chemotherapeutic agents with or without Tβ-4 (propidium iodide staining, flow cytometry)
Procedure: (§3) FIGS. 4A, 4B, and 4C show the effects of thymosin beta-4 (Tβ-4) on D556 and D283 cell survival. For cell viability assays, D556 cells (FIG. 4A) and D283 cells (FIG. 4B) were treated with DMSO, doxorubicin, or VMY in the presence or absence of Tβ-4, and cell viability as measured using propidium iodide (PI) staining with flow cytometry. Control cells were untreated. […] GADPH expression was used as a control.
(§4) The effect of Tβ-4 was evaluated using a cell viability assay for D556 and D283 cells. D556 and D283 cells were treated with 5 nM Tβ-4 and either doxorubicin or VMY. Viability of D556 cells (FIG. 4A) and of D283 cells (FIG. 4B) was measured using propidium iodide (PI) staining with flow cytometry. A dose response curve was performed for D556 cells treated with vincristine alone or vincristine plus Tβ-4 using a cellular proliferation assay kit wst-1 (FIG. 4C).

D556 cells [3] = test: Cell viability of D556 cells treated with chemotherapeutic agents with or without Tβ-4 (propidium iodide staining, flow cytometry; wst-1)
Procedure: as §3, §4

D556 cells [4] = test: Cell survival of D556 cells after p53 knockdown and drug treatment; conditions: 18 hours treatment
Procedure: as §1, §2

D556 cells [5] = test: Apoptotic cell death of D556 cells after p53 and mTOR shRNA knockdown and drug treatment (trypan blue, annexin V/PI); conditions: p53 loss plus mTOR knockdown
Procedure: FIGS. 2A, 2B and 2C show the effect of silencing of p53 and mTOR in D556 cells. FIG. 2A and FIG. 2B are bar graphs showing the proportion of cells undergoing apoptotic cell death as a result of infection with p53 shRNA, control pLKO, mTOR and both p53 and mTOR lentivirus in D556 cells treated for 18 hrs with DMSO, VMY (30 uM) or doxorubicin (1 uM) as assessed using Trypan blue (FIG. 2A) and annexin V and propidium iodide (PI) staining (FIG. 2B) and measured by flow cytometry. Data are shown as percent change in staining versus pLKO-control infected cells.
The proportion of cells undergoing apoptotic cell death as a result of infection with p53 shRNA, control pLKO, mTOR and both p53 and mTOR lentivirus in D556 cells treated for 18 hrs with DMSO, VMY (30 uM) or doxorubicin (1 uM) was assessed using trypan blue (FIG. 2A) and annexin V and propidium iodide (PI) staining (FIG. 2B) and measured by flow cytometry. Data were determined as the percent change in staining versus pLKO-control infected cells.

pmTOR in D556 cells = test: Western blot for pmTOR in D556 cells infected with p53 shRNA or control pLKO lentivirus
Procedure: D556 cells were infected with either p53 shRNA or control pLKO lentivirus and Western blotting was performed to show the effect of p53 inhibition on pmTOR.

p110 = test: Cell viability of cells overexpressing p110 with added mTOR/AKT signaling inhibitor
Procedure: FIGS. 3A, 3B, 3C, 3D, and 3E show the effects of over expression of p110-caax on D556 and D283 cell survival. D556 cells were transformed with p110 or control plasmid, and Western blots for p110 and β-actin were run (FIG. 3A). The effects of overexpression of p110 on cell viability were determined via Trypan blue assay on D283 cells (FIG. 3B, upper right panel) and D556 cells (FIG. 3C, lower left panel) showing Trypan blue assay results; lower middle panel showing). Cell viability for D556 cells was also measured by propidium iodide (PI) staining and measured by flow cytometry (FIG. 3D, lower middle panel)). Reversal of chemosensitivity induced by p110 overexpression is shown when an inhibitor of mTOR/AKT signaling (Rad001/Everolimus) is added (FIG. 3E)
D556 cells were transformed with p110 or control plasmid and Western blots for p110 and β-actin were run (FIG. 3A). The effects of overexpression of p110 on cell viability were determined via Trypan blue assay on D283 cells (FIG. 3B) and D556 cells (FIG. 3C). Cell viability for D556 cells was also measured by propidium iodide (PI) staining and measured by flow cytometry (FIG. 3D).

[6] = with doxorubicin, vincristine, VMY-1-103

Tβ-4: multifunctional regenerative peptide, sequence MSDKPDMAEIEKFDKSKLKKTETQEKNPLPSKETIEQEKQAGES (SEQ ID NO:1); PI3K activator; commercially available as RGN-352 (MSDKPDMAEIEKFDKSKLKKTETQEKNPLPSKETIEQEKQAGES; listed as Homo sapiens)
sensitivity of D556 cells to cisplatin in presence vs absence of Tβ-4 (D556 cells [1]): significantly more sensitivity
sensitivity of D556 cells to vincristine in presence vs absence of Tβ-4 (D556 cells [1]): significantly more sensitivity
protein induction by Western blot [2]: induces Akt, PP2A (α and c subunit), PARP and RIP1
Tβ-4 sensitivity of cell line (D283 cells; D286 cells): insensitive
protection of D283 (p53 low) cells from chemotherapeutic agents (D283 cells; [6]): protects D283 (p53 low) cells from the same drugs
Tβ-4 sensitivity of cell line (D556 cells [3]; D556 cells): sensitive
sensitization of MB cells with high p53 levels to chemotherapeutic agents (D556 cells [3]; [6]): sensitizes MB cells with high p53 levels to chemotherapeutic agents

CC[C@]1(O)C[C@H]2CN(CCc3c([nH]c4ccccc34)[C@@](C(=O)OC)(c3cc4c(cc3OC)N(C=O)[C@H]3[C@@](O)(C(=O)OC)[C@H](OC(C)=O)[C@]5(CC)C=CCN6CC[C@]43[C@@H]65)C2)C1 [vincristine]
cell survival of p53 shRNA infected D556 cells vs control pLKO lentivirus (D556 cells [4]): lower percentage of cell survival
chemoresistance of p53-suppressed D556 cells after shRNA knockdown of mTOR (D556 cells [5]): restoring chemoresistance

CC(C)[C@H](CO)Nc1nc(Nc2ccc(C(=O)NCCNS(=O)(=O)c3cccc4c(N(C)C)cccc34)c(Cl)c2)c2ncn(C(C)C)c2n1 [VMP]
pmTOR level in cells infected with p53 shRNA vs control pLKO lentivirus (pmTOR in D556 cells): induction of pmTOR

N.N.[Cl][Pt][Cl] [cisplatin]
cell survival of p53 shRNA infected D556 cells vs control pLKO lentivirus (D556 cells [4]): lower percentage of cell survival

COc1cccc2c1C(=O)c1c(O)c3c(c(O)c1C2=O)C[C@@](O)(C(=O)CO)C[C@@H]3O[C@H]1C[C@H](N)[C@H](O)[C@H](C)O1 [doxorubicin]
cell survival of p53 shRNA infected D556 cells vs control pLKO lentivirus (D556 cells [4]): lower percentage of cell survival
pmTOR level in cells infected with p53 shRNA vs control pLKO lentivirus (pmTOR in D556 cells): induction of pmTOR
chemoresistance of p53-suppressed D556 cells after shRNA knockdown of mTOR (D556 cells [5]): restoring chemoresistance

CO[C@H]1C[C@@H]2CC[C@@H](C)[C@@](O)(O2)C(=O)C(=O)N2CCCC[C@H]2C(=O)O[C@H]([C@H](C)C[C@@H]2CC[C@@H](OCCO)[C@H](OC)C2)CC(=O)[C@H](C)/C=C(\C)[C@@H](O)[C@@H](OC)C(=O)[C@H](C)C[C@H](C)/C=C/C=C/C=C/1C [Rad001/Everolimus, Everolimus]
effect on chemosensitivity induced by p110 overexpression (p110): reversed the chemosensitivity induced by p110
